The record followed here is the supplement of paper PMC10307832.

Experiment in all cases: relative viability (nuclei count vs DMSO), 5 days (fraction); higher = more cells survive
Compound in the test “Dactolisib + Palbociclib”: Cn1c(=O)n(-c2ccc(C(C)(C)C#N)cc2)c2c3cc(-c4cnc5ccccc5c4)ccc3ncc21 [Dactolisib] + CC(=O)c1c(C)c2cnc(Nc3ccc(N4CCNCC4)cn3)nc2n(C2CCCC2)c1=O [Palbociclib] (partner 0.5 µM)
Put shortly:
(§1)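 Nuclei were stained with Hoechst during a one-step fixation (final 0.05% Triton X-100, 1% formaldehyde, 1 ug/ml Hoechst) carried out 5 days after dosing, then counted on 4× images. The cells, lung cancer lines in 1536-well plates, had been dosed by pin tool the day after seeding with one drug alone or a fixed anchor-drug dose plus five library-drug doses (not always all listed) in √10 steps. Relative viability is the nuclei count in treated wells divided by that in vehicle wells, and each value is the median of duplicate plates.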

Compound in the test “AZ505 + Luminespib”: C1CCC(CC1)N(CCNCCC2=C3C(=C(C=C2)O)NC(=O)CO3)C(=O)CCNCCC4=CC(=C(C=C4)Cl)Cl [AZ505] + CCNC(=O)c1noc(-c2cc(C(C)C)c(O)cc2O)c1-c1ccc(CN2CCOCC2)cc1 [Luminespib] (partner 0.01 µM)
Put shortly:
as §1

Compound in the test “Dactolisib + Phenformin”: Cn1c(=O)n(-c2ccc(C(C)(C)C#N)cc2)c2c3cc(-c4cnc5ccccc5c4)ccc3ncc21 [Dactolisib] + N=C(N)NC(=N)NCCc1ccccc1 [Phenformin] (partner 250 µM)
Put shortly: as §1

Compound in the test “Dactolisib + Olaparib”: Cn1c(=O)n(-c2ccc(C(C)(C)C#N)cc2)c2c3cc(-c4cnc5ccccc5c4)ccc3ncc21 [Dactolisib] + O=C(c1cc(Cc2n[nH]c(=O)c3ccccc23)ccc1F)N1CCN(C(=O)C2CC2)CC1 [Olaparib] (partner 8 µM)
The essentials: as §1

For the cell line UMC-11, the relative viability is 0.331 with Dactolisib + Palbociclib (first compound 0.002 µM); 0.311 with Dactolisib + Palbociclib (first compound 0.006325 µM); 0.344 in the test with Dactolisib + Palbociclib (first compound 0.02 µM); 0.318 with Dactolisib + Palbociclib (first compound 0.06325 µM); 0.305 with Dactolisib + Palbociclib (first compound 0.2 µM); 1.05 in the test with AZ505 + Luminespib (first compound 0.08 µM). Also, the relative viability in the test with AZ505 + Luminespib (first compound 0.253 µM) was found to be 1.04; with AZ505 + Luminespib (first compound 0.8 µM) it was 0.996; with AZ505 + Luminespib (first compound 2.53 µM), 1.01; with AZ505 + Luminespib (first compound 8 µM), 1.03; in the test with Dactolisib + Phenformin (first compound 0.002 µM), 0.326; with Dactolisib + Phenformin (first compound 0.006325 µM) it was 0.326. Further, the relative viability came to 0.315 with Dactolisib + Phenformin (first compound 0.02 µM); 0.218 with Dactolisib + Phenformin (first compound 0.06325 µM); 0.22 with Dactolisib + Phenformin (first compound 0.2 µM); 0.36 with Dactolisib + Olaparib (first compound 0.002 µM); 0.317 with Dactolisib + Olaparib (first compound 0.006325 µM); 0.306 in the test with Dactolisib + Olaparib (first compound 0.02 µM). For the same cell line, the figures for the relative viability in the test with Dactolisib + Olaparib (first compound 0.06325 µM) and with Dactolisib + Olaparib (first compound 0.2 µM) were 0.202 and 0.193, respectively.
